Read-outs that look alike come from different tables or passages of the source. Residues, ends and D or L forms follow the SMILES beside them. *: point of attachment. Cbz = O=C(OCc1ccccc1)*; CH2F = FC*
How the values were obtained:
[1] = target: T1, CDC25B (Homo sapiens, UniProt P30305); conditions: cited from earlier work
T1 sequence (P30305 1-580): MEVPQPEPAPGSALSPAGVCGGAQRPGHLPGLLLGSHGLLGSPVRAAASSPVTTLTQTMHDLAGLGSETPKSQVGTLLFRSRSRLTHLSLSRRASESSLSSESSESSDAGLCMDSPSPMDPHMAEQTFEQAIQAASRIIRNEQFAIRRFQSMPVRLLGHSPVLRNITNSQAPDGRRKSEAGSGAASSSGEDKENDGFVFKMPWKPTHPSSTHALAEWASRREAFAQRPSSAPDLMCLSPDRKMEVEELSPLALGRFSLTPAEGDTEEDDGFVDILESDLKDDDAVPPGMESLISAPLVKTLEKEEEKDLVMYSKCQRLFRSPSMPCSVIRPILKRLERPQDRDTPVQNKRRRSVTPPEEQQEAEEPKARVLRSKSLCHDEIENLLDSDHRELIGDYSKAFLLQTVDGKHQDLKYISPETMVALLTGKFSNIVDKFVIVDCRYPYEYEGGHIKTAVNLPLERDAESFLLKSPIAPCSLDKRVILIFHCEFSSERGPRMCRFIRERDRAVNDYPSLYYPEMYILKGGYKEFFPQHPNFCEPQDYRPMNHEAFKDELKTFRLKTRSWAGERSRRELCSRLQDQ

[2] = test system: some tumour cells; design: method as in PMID 22524450; conditions: 200 µM; cited from earlier work
[3] = target: T2, CDC25B (Homo sapiens, UniProt P30305); assay: Intrinsic fluorescence quenching of recombinant CDC25B catalytic domain (Stern-Volmer); type: binding; conditions: for KSV (Stern-Volmer constant): 0.2 µM wild-type CDC25B, emission 357 nm, 20 °C, no OMFP; for K′D/Ki ratio: K′D of free CDC25B•inhibitor over Ki; for Kd: reciprocal of KSV, inhibitor concentration leading to 50% quenching of CDC25B emission, read-out: K′D of the complex, Free CDC25B•inhibitor
T2 sequence (P30305 377-551 isoform P30305-2 limits assumed): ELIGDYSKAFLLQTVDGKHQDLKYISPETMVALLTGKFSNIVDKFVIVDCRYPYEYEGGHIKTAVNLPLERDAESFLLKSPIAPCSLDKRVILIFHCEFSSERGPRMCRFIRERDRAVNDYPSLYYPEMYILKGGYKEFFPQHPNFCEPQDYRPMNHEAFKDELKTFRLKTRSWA
Protocol: (§1) Fluorescence spectra were recorded at 20 °C using a computer-assisted Cary Eclipse spectrofluorimeter (Varian, Palo Alto, CA, USA) equipped with an electronic temperature controller. The excitation wavelength was set at 280 nm and the excitation and emission slits were set at 10 and 20 nm, respectively. A 500 µL final volume of a 0.2 µM solution of CDC25B or CDC25B-C473S dissolved in 20 mM Tris•HCl, pH 7.8, 0.5 mM TCEP was directly prepared in the fluorimetric cuvette in the absence or in the presence of OMFP and/or some NPA derivatives. Serial pre-dilutions of the NPA derivatives or OMFP at increasing concentration were prepared in DMSO or methanol, respectively. Alongside, a convenient amount of the enzyme pre-dilution was prepared just before its usage for the experiment and stored on ice. When the combined effect of NPA derivative and OMFP was investigated, two enzyme pre-dilutions were prepared in the absence or in the presence of 5 µM OMFP. In order to evaluate the specific effect produced by any addition of solvent/ligand on the intrinsic fluorescence of the enzyme, 495 µL of the enzyme pre-dilution were placed in the fluorimetric cuvette and the relative spectrum was recorded; after the addition of 5 µL of each pre-dilution of solvent/ligand and fast mixing, the spectrum was recorded again. This procedure, repeated for each experimental point, allowed a normalisation of the specific effects produced by solvent/ligands. Furthermore, a correction was also applied for the little inner-filter effect due to the absorbance at 280 nm of the NPA derivative used at different concentrations; on the other hand, no correction was necessary for OMFP. All spectra, recorded at a scan speed of 120 nm/min, were normalised and corrected.

[4] = target: T1, CDC25B; assay: Kinetic studies of CDC25B phosphatase inhibition (OMFP substrate); type: biochemical; conditions: putative from Lineweaver-Burk plots (ref 18), confirmed by the fluorescence studies of this work
[5] = target: T3, OMFP-bound CDC25B-C473S (Homo sapiens, UniProt P30305, C487S); assay: Intrinsic fluorescence quenching of CDC25B-C473S in the presence of 5 µM OMFP (Stern-Volmer); type: binding; conditions: reciprocal of KSV; presence of 5 µM OMFP; read-out: K′D of the complex, OMFP-bound CDC25B-C473S•inhibitor
T3 sequence (P30305 370-580 C487S): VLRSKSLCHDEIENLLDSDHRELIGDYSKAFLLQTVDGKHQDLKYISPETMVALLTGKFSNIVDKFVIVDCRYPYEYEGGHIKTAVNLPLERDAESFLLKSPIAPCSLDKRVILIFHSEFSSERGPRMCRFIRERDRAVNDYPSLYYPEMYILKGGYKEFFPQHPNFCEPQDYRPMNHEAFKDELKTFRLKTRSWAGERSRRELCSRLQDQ
Description: (§2) The mutant form of CDC25B, carrying the C473S replacement (CDC25B-C473S), was obtained through site-directed mutagenesis of the CDC25B catalytic segment cloned in pET28a-CDC25B-cd. To this aim, the QuikChange site-directed mutagenesis kit (Stratagene, La Jolla, CA, USA) and the forward and reverse primers for C473S replacement (5′d-[…]-3′ and 5′d-[…]-3′) were used. Positive clones were obtained, and the nucleotide sequencing of the mutagenised segment excluded the presence of undesired mutations. The new vector was called pET28a-CDC25B-C473S-cd. The expression of the new vector and the purification of the recombinant form of CDC25B-C473S catalytic domain were carried out as previously reported for wild-type CDC25B catalytic domain[18], and similar yields were obtained. As expected, the mutant enzyme was unable to hydrolyse the synthetic substrate OMFP, when its activity was checked with the fluorimetric assay method previously described.
as §1

[6] = test system: OMFP-bound CDC25B-C473S; assay: as above; type: binding; conditions: for KSV (Stern-Volmer constant): 0.2 µM CDC25B-C473S, in the presence of 5 µM OMFP; for K′D/Ki ratio: K′D of OMFP-bound CDC25B-C473S•inhibitor over Ki
Description: as §2, §1

[7] = test system: A2058 cells; assay: Apoptosis by cytofluorimetry after PI incorporation (subdiploid DNA content); type: cell-based, human; conditions: 100 µM Z-VAD-FMK plus 10 µM 4a, 48 h
Protocol: (§3) The human melanoma cell lines A375 and A2058, deriving from a primary tumour or lymph nodal metastasis, respectively, were kindly provided from CEINGE (Naples, Italy). Cells were grown in DMEM supplemented with 10% FBS, 2 mM L-glutamine, 100 IU/mL penicillin G and 100 µg/mL streptomycin in humidified incubator at 37 °C under 5% CO2 atmosphere. The cell line BJ-5ta, a human skin fibroblast immortalised with the human telomerase reverse transcriptase[30] was cultured in a 4:1 mixture of DMEM and Medium 199 supplemented with 4 mM L-glutamine, 4.5 g/L glucose, 1.5 g/L sodium bicarbonate, 10% FBS, 100 IU/mL penicillin G, […] streptomycin in humidified incubator at 37 °C under 5% CO2 atmosphere. All cells were split and seeded every 3 days and used during their exponential phase of growth. Cell treatments were usually carried out after 24 h from plating.
(§4) Cytofluorimetric analysis was used to determine the number of apoptotic nuclei essentially as previously described. Briefly, cells were seeded into six-well plates at 3 × 10^5 cells/well and after 24 h were treated with 4a or 0.5% (v/v) DMSO and incubated for different times. Then, cells were harvested with trypsin, and centrifuged, and the pellets were resuspended in 200 µL of a hypotonic lysis solution containing 50 µg/mL PI. After incubation at 4 °C for 30 min, cells were analysed with a FACScan flow cytometer (Becton Dickinson, Franklin Lakes, NJ, USA) to evaluate the presence of nuclei with DNA content lower than diploid.

[8] = test system: A375 cells; assay: as above; type: cell-based, human; conditions: 100 µM Z-VAD-FMK plus 10 µM 4a, 48 h
Protocol: as §3, §4

O=C(O)c1ccc(C(=O)c2ccccc2C(=O)O)cc1C(=O)O [NSC28620]
Inhibition mechanism ([1]; lead compound): reversible competitive
cell growth rate of some tumour cells [2]: reduced

O=C(O)c1ccccc1Nc1ccc(O)c2ccccc12 [6e]
KSV (Stern-Volmer constant) [3]: 0.035 µM⁻¹
K′D/Ki ratio [3]: 10.6
Kd [3]: 28.6 µM
Inhibition mechanism [4]: noncompetitive

CCOC(=O)c1cccc(Nc2cccc3ccccc23)c1 [compound 4]
Kd [5]: 43 µM
KSV (Stern-Volmer constant) [6]: 0.023 µM⁻¹
K′D/Ki ratio [6]: 5.9
KSV (Stern-Volmer constant) [3]: 0.016 µM⁻¹
Kd [3]: > 50 µM
Inhibition mechanism [4]: uncompetitive

COc1ccc2c(c1)Oc1cc(OP(=O)(O)O)ccc1C21OC(=O)c2ccccc21 (stereo not drawn) [OMFP, O-methylfluorescein phosphate]
Km ([1]; read-out: KM of the wild type CDC25B for the substrate): 2.7 ± 0.2 µM

Nc1cccc2c(Nc3cccc(C(=O)O)c3)cccc12 [7j]
Kd [5]: 15.1 µM
KSV (Stern-Volmer constant) [3]: 0.129 µM⁻¹
K′D/Ki ratio [3]: 9.7
Kd [3]: 7.8 µM
Inhibition mechanism [4]: noncompetitive

COC(=O)C[C@H](NC(=O)[C@H](C)NC(=O)[C@@H](NC(=O)OCc1ccccc1)C(C)C)C(=O)CF [Z-VAD-FMK, reference compound] (Cbz-Val-Ala-Asp(OMe)-CH2F)
apoptosis level induced by 4a upon exposure to the caspase inhibitor [7]: partial but significant reduction
apoptosis level induced by 4a upon exposure to the caspase inhibitor [8]: partial but significant reduction

CCOC(=O)c1ccccc1Nc1cccc2ccccc12 [compound 3]
Kd [5]: 24 µM
KSV (Stern-Volmer constant) [6]: 0.042 µM⁻¹
K′D/Ki ratio [6]: 8.6
KSV (Stern-Volmer constant) [3]: 0.011 µM⁻¹
Kd [3]: > 50 µM
Inhibition mechanism [4]: uncompetitive

Nc1ccc(Nc2cccc(C(=O)O)c2)c2ccccc12 [7i]
KSV (Stern-Volmer constant) [3]: 0.069 µM⁻¹
K′D/Ki ratio [3]: 10.4
Kd [3]: 14.5 µM
Inhibition mechanism [4]: noncompetitive

Reference: article PMC7580834, “Inhibition mechanism of naphthylphenylamine derivatives acting on the CDC25B dual phosphatase and analysis of the molecular processes involved in the high cytotoxicity exerted by one selected derivative in melanoma cells” (Journal of Enzyme Inhibition and Medicinal Chemistry, 2020)
